Earlier results as cited in patent US11491171B2, “Synthetic composition and method for modulating emotion and mood disorders” (GLYCOM A/S, priority 2015, dated 2022).

Test system: mice

Compound: 6′-O-sialyllactose [6′-SL]
- behavioural responses during stressor exposure: support normal behavioural responses

Compound: CC(=O)N[C@H]1[C@H]([C@H](O)[C@H](O)CO)O[C@@](O[C@H]2[C@@H](O)[C@@H](CO)O[C@@H](O[C@H]3[C@H](O)[C@@H](O)C(O)O[C@@H]3CO)[C@@H]2O)(C(=O)O)C[C@@H]1O (some centres unmarked) [3′-SL, 3′-O-sialyllactose]
- behavioural responses during stressor exposure: support normal behavioural responses
